Measurements from patent US10351553B2, “Potassium channel modulators” (Cadent Therapeutics, Inc., priority 2017, dated 2019).
Converted amounts (≈) assume the structure as drawn.

Assays:
[1] = Aqueous (kinetic) solubility, shake-flask, phosphate buffer pH 7.4; format: physicochemical; settings: 23 °C, kinetic from dmso stock, phosphate buffer pH 7.4, 16 hours at room temperature
Protocol: Aqueous solubility (kinetic solubility) tests of the compounds were performed in phosphate buffer saline (pH 7.4) measured by shake-flask method. In this assay, DMSO stock solution of test compound is added to buffer followed by equilibration (shaking), filtration and determination of soluble amount by HPLC-UV Conditions used in the assay are summarized below.

[2] = Brain free fraction by equilibrium dialysis in rat brain tissue homogenate; format: in vitro ADME; settings: 10% rat brain tissue homogenate, Tables 2 and 3
Protocol: The extent to which compounds modulate SK2 channels in vivo is expressed as % SK2 SC100, which is the ratio of the concentration of the drug free in the brain to the measured potency of the compound on the SK2 channel. It is calculated as follows: CFB=CMB×BFF, where CMB is the concentration of compound measured by liquid chromatography mass spectrometry from brains harvested immediately following tremor recording (Table 1, “Measured Brain Concentration”). CFB is the amount of free compound not complexed with protein and therefore free to interact with the SK2 channel (Table 1, “Calculated Free Brain Concentration”). BFF is average free fraction of compound as measured by equilibrium dialysis in separate experiments (1 uM test concentration incubated in 10% rat brain tissue homogenate for 5 hours at 37° C.) (Table 1, “Brain Free Fraction”). Free drug in brain available to interact with SK2 channels (CFB) is arrived at by multiplying the measured total brain level (CMB) by the average free fraction (BFF).

[3] = molecular target: T1, SK2 channels (Homo sapiens, UniProt Q9H2S1); test: Whole-cell patch-clamp of SK2 current in HEK293 cells expressing SK2 channels; format: cell-based; settings: Table 2; concentration that produces doubling of channel current; averages from later experiments
T1 construct: expressed in transfected cells; host or cells: HEK293
Protocol: The biological activity was determined as follows. The ionic current through small-conductance Ca^2+-activated K^+ channels (SK channels, subtype 2) was measured using the whole-cell configuration of the patch-clamp technique in a patch-clamp set-up using HEK293 tissue culture cells expressing SK2 channels as described in Hougaard et al., British Journal of Pharmacology 151, 655-665, May 8, 2007, the entire teachings of which are incorporated herein by reference. In one aspect, a compound is defined to be an SK Positive Allosteric Modulator (PAM) if the compound increases current in this assay, for example, if the SC100 value of the compound is less than or equal to 10 μM as determined by this assay. The SC100 value is defined to be the concentration of compound that increases the basal current by 100%.

| Structure (SMILES) | solubility kinetic at 16 h [1] [µg/mL] | fraction unbound at 5 h, 1 uM [2] | SK2 potency (SC100) [3] [µM] |
| --- | --- | --- | --- |
| Cc1csc(-c2nc(NC3CCC(F)(F)CC3)cc([C@H](C)O)n2)n1 (single isomer, unassigned) [Compound 5] | 80.3 (≈ 227 µM) | 0.042 | – |
| Cc1csc(-c2nc(NC3CCC(F)(F)CC3)cc([C@@H](C)O)n2)n1 (single isomer, unassigned) [Compound 6] | 66.7 (≈ 188 µM) | 0.0431 | – |
| Cc1ccn(-c2nc(N[C@@H]3CCCC[C@H]3F)cc(N3CCOCC3)n2)n1 [Comparator B, reference compound] | – | – | 5.8 |
| Cc1cc(C)n(-c2nc(Nc3ccc(Cl)cc3)cc(N3CCOCC3)n2)n1 [Comparator C, reference compound] | 1 (≈ 2.6 µM) | 0.0016 | – |
| COc1cc(NC2CCC(F)(F)CC2)nc(-n2nc(C)cc2C)n1 [Compound 2, N-(4,4-difluorocyclohexyl)-2-(3,5-dimethyl-1H-pyrazol-1-yl)-6-methoxypyrimidin-4-amine] | 31 (≈ 91.9 µM) | 0.0276 | – |
| COc1cc(NC2CCC(F)(F)CC2)nc(-c2nc(C)cs2)n1 [Compound 3, N-(4,4-difluorocyclohexyl)-6-methoxy-2-(4-methylthiazol-2-yl) pyrimidin-4-amine] | 70.9 (≈ 208 µM) | 0.0269 | – |
| FC1(F)CCC(Nc2cc(N3CCOCC3)nc(-n3ccc(C4CC4)n3)n2)CC1 [Compound 7, 2-(3-cyclopropyl-1H-pyrazol-1-yl)-N-(4,4-difluorocyclohexyl)-6-morpholinopyrimidin-4-amine] | 49.7 (≈ 123 µM) | 0.0155 | – |
